Assays:
[1] = tested on: eGFP-SLX4 interaction with TOPBP1, MUS81, ERCC1; assay: eGFP-SLX4 co-immunoprecipitation, mitotic HEK293TN cells; format: cell-based, human; settings: eGFP-SLX4 Co-IP; RO-3306 7 µM, 30 min, nocodazole-synchronised
Procedure: GFP-Trap® Agarose Co-immunoprecipitation
HEK293TN cells were seeded to be ~25–30% confluence the next day in a 15 cm tissue culture dish. The following day cells were transfected using Lipofectamine 2000 transfection reagent (Thermo Fisher Scientific) with 24 µg of plasmid DNA encoding eGFP-SLX4 or eGFP-TOPBP1 expression cassettes following manufacturer’s instructions.
Forty eight hours post transfection cells were harvested after treatments as described, snap frozen on dry ice and stored at −80 °C. Cell pellets were removed from −80 storage and thawed on ice in 2.4 ml IP buffer 1 (100 mM NaCl, 0.2% Igepal CA-630, 1 mM MgCl2, 10% glycerol, 5 mM NaF, 50 mM Tris-HCl, pH 7.5), supplemented with EDTA Free […] protease inhibitor (Sigma Aldrich) and 25 U ml−1 Benzonase (Novagen). Cells were resuspended and rotated at 4 °C for 90 min. Benzonase was then inhibited by adjusted NaCl concentration to 200 mM and with the addition of 2 mM EDTA, followed by rotation for a further 30 min at 4 °C on a carousel. The cell suspension was then centrifuged at 16,000 x g for 25 min at 4 °C. […] The supernatant, now containing eluted material, was transferred to a new 1.5 ml microcentrifuge tube ready for downstream western blot analysis.

[2] = tested on: RPE1 p53-/- cells; assay: Immunofluorescence foci, RPE1 p53-/- cells; format: cell-based, human; settings: RPE1 p53-/- cells treated with aphidicolin followed by acute CDK1i
Procedure: Immunofluorescence microscopy […] For detection of micronuclei, cells were fixed in 250 mM HEPES pH 7.5, 0.1% Triton X-100, 4% PFA in PBS for 20 minutes at 4 °C. Coverslips were then incubated for 5 min in 1x PBS with three buffer changes followed by incubation with 0.5% Triton X-100/ PBS for 10 min at room temperature. Coverslips were then incubated for 5 minutes in 1x PBS with three buffer changes. For EdU detection coverslips were transferred to a humidified chamber and incubated in EdU click it reaction buffer containing Alexafluor 488 azide for 1 h at room temperature followed by three 5 min washes in 1x PBS. Coverslips were then incubated in 5% FBS/PBS for 1 h followed by overnight incubation at 4 °C with primary antibody diluted in 5% FBS/PBS. Coverslips were then washed 3 × 5 min in 1x PBS followed by 1 h incubation at room temperature in 5% FBS/PBS containing secondary antibodies. Coverslips were incubated a further three times for 5 min in 1x PBS. Coverslips were then mounted on superfrost microscopy slides using Vectashield mounting medium with DAPI (Vector laboratories, […]). […] Cells were fixed in […] for 15 min at room temperature, followed by 3 × 5 min washes in 1xPBS. Coverslips were then incubated in 0.5% Triton-X/PBS for 10 min at room temperature, followed by a further 3 × 5 min 1xPBS washes. Coverslips were then incubated in blocking buffer (2% BSA, 0.05% Tween-20) for 1 h at room temperature, followed by incubation in respective primary antibodies overnight at 4 °C. Coverslips were then washed 3x for 5 min in 1x PBS followed by incubation for 1 h at room temperature in blocking buffer containing secondary antibodies. Coverslips were then washed 3x for 5 min in 1x PBS and mounted with Vectashield PLUS antifade mounting medium with DAPI (Vector laboratories, […]). Images were acquired using a Zeiss Axio Observer Z1 MarianasTM Microscope attached with a CSU-SoRa spinning disk unit using either a Photometrics Kinetix sCMOS camera built by Intelligent Imaging Innovations (3i) or a Zeiss Axio Observer Z1 MarianasTM Microscope attached with a CSUX1 spinning disk unit and Hamamatsu Flash 4 CMOS camera built by Intelligent Imaging Innovations (3i) or using an Opera Phenix Plus high content imaging system (Revvity). In each case 405, 488 and 640 laser lines were used in addition to DAPI, GFP/FITC, iRFP/CY5 emission filters. Quantification was carried out using FIJI (ImageJ, RRID:SCR_003070) software, CellProfiler (Broad Institute), Harmony (Revvity) or using […] Microsystems). Images of mitotic cells were analysed in 3D with maximum Z projections used for representative images in the manuscript to assist with visualisation.For interphase cells 2D images were analysed.

O=C1NC(=NCc2cccs2)S/C1=C\c1ccc2ncccc2c1 [CDK1i]
SLX4 Thr1260 phosphorylation and binding of TOPBP1 [1]: reduced SLX4 phosphorylation of Thr1260 and binding of TOPBP1
eGFP-SLX4 interaction with MUS81 or ERCC1 [1]: did not affect its interaction with MUS81 or ERCC1
MUS81 and TOPBP1 foci formation in prometaphase [2]: impairment of MUS81 and TOPBP1 foci formation in prometaphase cells

Reference: article PMC12661054, “The CIP2A-TOPBP1 axis facilitates mitotic DNA repair via MiDAS and MMEJ” (Nature Communications, 2025)
